Tests used:
[1] = target: GLP-1R (Homo sapiens, UniProt P43220); assay: ebBRET pathway activation (effector membrane translocation, 15 pathways) at the plasma membrane (rGFP-CAAX); type: cell-based; details: plasma membrane rGFP-CAAX, HEK293, agonist incubation 0 min, normalized to the highest responding drug, F test P < 0.00625, n=3-6
[2] = Adverse drug event analysis (FAERS, log likelihood ratio); details: for proportion, Abdominal pain: ADR_TERM Abdominal pain; for proportion, Eructation: ADR_TERM Eructation; for proportion, Nausea: ADR_TERM Nausea; for proportion, Pancreatic disease: ADR_TERM Pancreatic disease; for proportion, Vomiting: ADR_TERM Vomiting; for logLR: Fig. 6d
[3] = ref [56], [57], cited from earlier work
[4] = Supplementary Fig. 21, first group
[5] = Supplementary Fig. 21, fourth group (r25-r28)
[6] = Supplementary Fig. 21, third group (r21-r24)
[7] = SOC Endocrine disorders, FAERS via Open Targets
[8] = SOC Gastrointestinal disorders, FAERS via Open Targets
[9] = SOC Investigations, FAERS via Open Targets
[10] = SOC Metabolism and nutrition disorders, FAERS via Open Targets

GLP-1R, sequence (P43220 24-463): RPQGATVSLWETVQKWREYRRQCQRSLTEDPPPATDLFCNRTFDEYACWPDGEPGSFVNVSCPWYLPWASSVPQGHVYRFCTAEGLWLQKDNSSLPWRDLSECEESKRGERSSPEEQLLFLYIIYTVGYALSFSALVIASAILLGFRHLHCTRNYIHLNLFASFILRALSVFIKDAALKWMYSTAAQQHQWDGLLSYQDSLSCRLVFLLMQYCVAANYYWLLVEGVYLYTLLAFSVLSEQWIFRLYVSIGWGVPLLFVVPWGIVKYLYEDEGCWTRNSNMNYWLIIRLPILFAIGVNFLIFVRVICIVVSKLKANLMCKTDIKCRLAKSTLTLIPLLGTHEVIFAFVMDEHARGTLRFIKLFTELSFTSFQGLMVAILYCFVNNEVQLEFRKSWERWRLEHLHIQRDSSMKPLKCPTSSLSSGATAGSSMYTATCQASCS

CC[C@H](C)[C@H](NC(=O)[C@H](Cc1ccccc1)NC(=O)[C@H](CCC(=O)O)NC(=O)[C@H](CCCCN)NC(=O)[C@H](C)NC(=O)[C@H](C)NC(=O)[C@H](CCC(N)=O)NC(=O)CNC(=O)[C@H](CCC(=O)O)NC(=O)[C@H](CC(C)C)NC(=O)[C@H](Cc1ccc(O)cc1)NC(=O)[C@H](CO)NC(=O)[C@H](CO)NC(=O)[C@@H](NC(=O)[C@H](CC(=O)O)NC(=O)[C@H](CO)NC(=O)[C@@H](NC(=O)[C@H](Cc1ccccc1)NC(=O)[C@@H](NC(=O)CNC(=O)[C@H](CCC(=O)O)NC(=O)[C@H](C)NC(=O)[C@H](Cc1c[nH]cn1)NC(=O)[C@H](CCCNC(=N)N)NC(=O)[C@H](CCC(=O)O)NC(=O)[C@H](Cc1ccccc1)NC(=O)[C@H](CCC(=O)O)NC(=O)[C@H](CC(=O)O)NC(=O)[C@@H](N)Cc1c[nH]cn1)[C@@H](C)O)[C@@H](C)O)C(C)C)C(=O)N[C@@H](C)C(=O)N[C@@H](Cc1c[nH]c2ccccc12)C(=O)N[C@@H](CC(C)C)C(=O)N[C@H](C(=O)N[C@@H](CCCCN)C(=O)NCC(=O)N[C@@H](CCCNC(=N)N)C(=O)NCC(=O)O)C(C)C [GLP-1 (1-37)]
Efficacy (normalized), GRK2/Gβγ ([1]; GRK2-D110A-RlucII): 0 | Efficacy (normalized), Gα13 ([1]; PDZRhoGEF-RlucII): 0 | Efficacy (normalized), Gαi1 ([1]; Rap1Gap-RlucII): 0 | Efficacy (normalized), Gαi2 ([1]; Rap1Gap-RlucII): 0 | Efficacy (normalized), Gαi3 ([1]; Rap1Gap-RlucII): 0 | Efficacy (normalized), GαoA ([1]; Rap1Gap-RlucII): 0 | Efficacy (normalized), GαoB ([1]; Rap1Gap-RlucII): 0 | Efficacy (normalized), Gαz ([1]; Rap1Gap-RlucII): 0 | Efficacy (normalized), Gαs ([1]; Rluc8-mGs): 0 | Efficacy (normalized), Gα11 ([1]; p63RhoGEF-RlucII): 0 | Efficacy (normalized), Gα14 ([1]; p63RhoGEF-RlucII): 0 | Efficacy (normalized), Gα15 ([1]; p63RhoGEF-RlucII): 0 | Efficacy (normalized), Gαq ([1]; p63RhoGEF-RlucII): 0 | Efficacy (normalized), βARR2 ([1]; β-arrestin-2-RlucII): 0

CCCCCCCCCCCCCCCC(=O)N[C@@H](CCC(=O)NCCCC[C@H](NC(=O)[C@H](C)NC(=O)[C@H](C)NC(=O)[C@H](CCC(N)=O)NC(=O)CNC(=O)[C@H](CCC(=O)O)NC(=O)[C@H](CC(C)C)NC(=O)[C@H](Cc1ccc(O)cc1)NC(=O)[C@H](CO)NC(=O)[C@H](CO)NC(=O)[C@@H](NC(=O)[C@H](CC(=O)O)NC(=O)[C@H](CO)NC(=O)[C@@H](NC(=O)[C@H](Cc1ccccc1)NC(=O)[C@@H](NC(=O)CNC(=O)[C@H](CCC(=O)O)NC(=O)[C@H](C)NC(=O)[C@@H](N)Cc1cnc[nH]1)[C@@H](C)O)[C@@H](C)O)C(C)C)C(=O)N[C@@H](CCC(=O)O)C(=O)N[C@@H](Cc1ccccc1)C(=O)N[C@H](C(=O)N[C@@H](C)C(=O)N[C@@H](Cc1c[nH]c2ccccc12)C(=O)N[C@@H](CC(C)C)C(=O)N[C@H](C(=O)N[C@@H](CCCNC(=N)N)C(=O)NCC(=O)N[C@@H](CCCNC(=N)N)C(=O)NCC(=O)O)C(C)C)[C@@H](C)CC)C(=O)O [Liraglutide]
proportion, Abdominal pain ([2]; Supplementary Fig. 21): 0.02341 | proportion, Adenocarcinoma pancreas ([2]; Supplementary Fig. 21, ADR_TERM Adenocarcinoma pancreas): 0.01752 | proportion, Eructation ([2]; Supplementary Fig. 21): 0.03019 | proportion, Nausea ([2]; Supplementary Fig. 21): 0.07705 | proportion, Pancreatic disease [2, 4]: 0.08817 | proportion, Pancreatic disease [2, 5]: 0.1539 | proportion, Pancreatic disease ([2]; Supplementary Fig. 21, second group (r20)): 0.02656 | proportion, Pancreatic disease [2, 6]: 0.5446 | proportion, Vomiting ([2]; Supplementary Fig. 21): 0.03854

CC[C@H](C)[C@H](NC(=O)[C@H](Cc1ccccc1)NC(=O)[C@H](CCC(=O)O)NC(=O)[C@H](CCCCNC(=O)COCCOCCNC(=O)COCCOCCNC(=O)CC[C@H](NC(=O)CCCCCCCCCCCCCCCCC(=O)O)C(=O)O)NC(=O)[C@H](C)NC(=O)[C@H](C)NC(=O)[C@H](CCC(N)=O)NC(=O)CNC(=O)[C@H](CCC(=O)O)NC(=O)[C@H](CC(C)C)NC(=O)[C@H](Cc1ccc(O)cc1)NC(=O)[C@H](CO)NC(=O)[C@H](CO)NC(=O)[C@@H](NC(=O)[C@H](CC(=O)O)NC(=O)[C@H](CO)NC(=O)[C@@H](NC(=O)[C@H](Cc1ccccc1)NC(=O)[C@@H](NC(=O)CNC(=O)[C@H](CCC(=O)O)NC(=O)C(C)(C)NC(=O)[C@@H](N)Cc1cnc[nH]1)[C@@H](C)O)[C@@H](C)O)C(C)C)C(=O)N[C@@H](C)C(=O)N[C@@H](Cc1c[nH]c2ccccc12)C(=O)N[C@@H](CC(C)C)C(=O)N[C@H](C(=O)N[C@@H](CCCNC(=N)N)C(=O)NCC(=O)N[C@@H](CCCNC(=N)N)C(=O)NCC(=O)O)C(C)C [Semaglutide]
pancreatitis reports, in words ([3]; FAERS): lower incidence of pancreatitis | logLR, diabetic ketoacidosis [3, 7]: 101.6 | logLR, diabetic retinopathy [3, 7]: 83.01 | logLR, abdominal pain [3, 8]: 80.54 | logLR, diarrhoea [3, 8]: 91.4 | logLR, eructation [3, 8]: 76.22 | logLR, gastrointestinal disorder [3, 8]: 66.93 | logLR, nausea [3, 8]: 351 | logLR, pancreatic carcinoma [3, 8]: 37.15 | logLR, pancreatitis [3, 8]: 599.6 | logLR, pancreatitis acute [3, 8]: 54.4 | logLR, vomiting [3, 8]: 332.8 | logLR, decreased appetite ([3]; SOC General disorders and administration site conditions, FAERS via Open Targets): 42.19 | logLR, blood glucose increased [3, 9]: 43.39 | logLR, glycosylated haemoglobin increased [3, 9]: 60.95 | logLR, heart sounds [3, 9]: 49.27 | logLR, lipase increased [3, 9]: 49.97 | logLR, weight decreased [3, 9]: 122.9 | logLR, dehydration [3, 10]: 53.42 | logLR, euglycaemic diabetic ketoacidosis [3, 10]: 71.84 | logLR, retinopathy [3, 10]: 95.38 | logLR, acute kidney injury ([3]; SOC Renal and urinary disorders, FAERS via Open Targets): 39.07 | logLR, prolonged expiration ([3]; SOC Respiratory disorders, FAERS via Open Targets): 36.95 | logLR ([2]; Endocrine disorders: diabetic ketoacidosis): 101.6 | logLR ([2]; Endocrine disorders: diabetic retinopathy): 83.01 | logLR ([2]; Gastrointestinal disorders: abdominal pain): 80.54 | logLR ([2]; Gastrointestinal disorders: diarrhoea): 91.4 | logLR ([2]; Gastrointestinal disorders: eructation): 76.22 | logLR ([2]; Gastrointestinal disorders: gastrointestinal disorder): 66.93 | logLR ([2]; Gastrointestinal disorders: nausea): 351 | logLR ([2]; Gastrointestinal disorders: pancreatic carcinoma): 37.15 | logLR ([2]; Gastrointestinal disorders: pancreatitis): 599.6 | logLR ([2]; Gastrointestinal disorders: pancreatitis acute): 54.4 | logLR ([2]; Gastrointestinal disorders: vomiting): 332.8 | logLR ([2]; General disorders and administration site conditions: decreased appetite): 42.19 | logLR ([2]; Investigations: blood glucose increased): 43.39 | logLR ([2]; Investigations: glycosylated haemoglobin increased): 60.95 | logLR ([2]; Investigations: heart sounds): 49.27 | logLR ([2]; Investigations: lipase increased): 49.97 | logLR ([2]; Investigations: weight decreased): 122.9 | logLR ([2]; Metabolism and nutrition disorders: dehydration): 53.42 | logLR ([2]; Metabolism and nutrition disorders: euglycaemic diabetic ketoacidosis): 71.84 | logLR ([2]; Metabolism and nutrition disorders: retinopathy): 95.38 | logLR ([2]; Renal and urinary disorders: acute kidney injury): 39.07 | logLR ([2]; Respiratory disorders: prolonged expiration): 36.95 | proportion, Abdominal pain ([2]; Supplementary Fig. 21): 0.04766 | proportion, Diarrhoea ([2]; Supplementary Fig. 21, ADR_TERM Diarrhoea): 0.05408 | proportion, Eructation ([2]; Supplementary Fig. 21): 0.0451 | proportion, Gastrointestinal disorder ([2]; Supplementary Fig. 21, ADR_TERM Gastrointestinal disorder): 0.03961 | proportion, Nausea ([2]; Supplementary Fig. 21): 0.2077 | proportion, Pancreatic disease [2, 4]: 0.02198 | proportion, Pancreatic disease [2, 5]: 0.03219 | proportion, Pancreatic disease [2, 6]: 0.3548 | proportion, Vomiting ([2]; Supplementary Fig. 21): 0.1969

Reference: article PMC10562414, “GLP-1R signaling neighborhoods associate with the susceptibility to adverse drug reactions of incretin mimetics” (Nature Communications, 2023)
